Patent US11903959B2 (EMORY UNIVERSITY, priority 2017, dated 2024)
Read-outs that look alike come from different tables or passages of the source.

Key:
Tacaribe virus = experiment: microbe, parasite or virus in culture; assay type: cell-based; details: Mammarenavirus tacaribeense, Vero, Vero cells
Flu B = experiment: microbe, parasite or virus in culture; assay type: cell-based; details: Influenza B virus, MDCK
[1] = cynomolgus monkey, in vivo, po; for AUC0->24 h / CL / Cmax / t1/2 / tmax: 0.4 mmol/kg
[2] = ICR (CD-1), mouse, in vivo
Flu A H5N1 (Low Path) = experiment: microbe, parasite or virus in culture; assay type: cell-based; details: Influenza A virus, H5N1, MDCK
Junin virus = experiment: microbe, parasite or virus in culture; assay type: cell-based; details: Mammarenavirus juninense, Vero, Vero cells

O=c1nc(NO)ccn1C1OC(CO)C(O)C1O (stereo not drawn) [EIDD-1931, 1-(3,4-dihydroxy-5-(hydroxymethyl)tetrahydrofuran-2-yl)-4-(hydroxyamino)pyrimidin-2-one]
EC50 (Tacaribe virus): 14.4 µM | EC50 (Flu B): < 0.4 µM | bioavailability [1]: low bioavailability | F ([1]; female): ~3% | AUC0->24 h ([1]; female): 7.21 ± 4.21 µM·h | CL ([1]; female): 1100 ± 527 mL/min/kg | Cmax ([1]; female): 3.31 ± 1.99 µM | t1/2 ([1]; female): 0.78 ± 0.2 h | tmax ([1]; female): 0.87 ± 0.75 h | AUC0->24 h ([1]; male): 5.75 ± 1.99 µM·h | CL ([1]; male): 1170 ± 312 mL/min/kg | Cmax ([1]; male): 3.31 ± 1.82 µM | t1/2 ([1]; male): 1.2 ± 1.2 h | tmax ([1]; male): 0.75 ± 0.28 h | t1/2 ([2]; 15 mg/kg): 2.9 h | t1/2 ([2]; 225 mg/kg): 4.2 h | AUCinf ([2]; 750 mg/kg): 228.9 µM·h | Brain Cmax ([2]; 750 mg/kg): 18.8 nmol/g | t1/2 ([2]; 750 mg/kg): 5.2 h | EC50 (Flu A H5N1 (Low Path)): 1.28 µM | EC50 (Junin virus): 18.4 µM
